Assay results taken from ChEMBL document CHEMBL4270535, “Facile synthesis of vanillin-based novel bischalcones identifies one that induces apoptosis and displays synergy with Artemisinin in killing chloroquine resistant Plasmodium falciparum” (Eur J Med Chem, 2018).
The source made the active and inactive calls. The calls are words filed in the database; no cut-off is given here.

Legend:
Plasmodium falciparum [1] = assay: Antiplasmodial activity against synchronized ring stage of chloroquine-sensitive Plasmodium falciparum 3D7 infected in human erythrocytes after 48 hrs by SYBR Green 1 dye based fluorescence assay; format: functional, organism-based; conditions: 3D7, 48 h
Plasmodium falciparum [2] = assay: Antiplasmodial activity against synchronized ring stage of chloroquine-resistant Plasmodium falciparum INDO infected in human erythrocytes after 48 hrs by SYBR Green 1 dye based fluorescence assay; format: functional, organism-based
Plasmodium falciparum [3] = assay: Antiplasmodial activity against synchronized ring stage of chloroquine-resistant Plasmodium falciparum Dd2 infected in human erythrocytes after 48 hrs by SYBR Green 1 dye based fluorescence assay; format: functional, organism-based; conditions: Dd2, 48 h
[4] = Resistance index, ratio of IC50 for synchronized ring stage of chloroquine-resistant Plasmodium falciparum INDO infected in human erythrocytes to IC50 for synchronized ring stage of chloroquine-sensitive Plasmodium falciparum 3D7 infected in human erythrocytes; format: functional
[5] = Resistance index, ratio of IC50 for synchronized ring stage of chloroquine-resistant Plasmodium falciparum Dd2 infected in human erythrocytes to IC50 for synchronized ring stage of chloroquine-sensitive Plasmodium falciparum 3D7 infected in human erythrocytes; format: functional
[6] = Selectivity index, ratio of IC50 for human HeLa cells to IC50 for synchronized ring stage of chloroquine-sensitive Plasmodium falciparum 3D7 infected in human erythrocytes; format: toxicity, cell-based; conditions: read-out: Ratio IC50
[7] = Selectivity index, ratio of IC50 for mouse L929 cells to IC50 for synchronized ring stage of chloroquine-sensitive Plasmodium falciparum 3D7 infected in human erythrocytes; format: toxicity, cell-based; conditions: read-out: Ratio IC50
Plasmodium falciparum [8] = assay: Synergistic antiplasmodial activity against synchronized ring stage of chloroquine-resistant Plasmodium falciparum INDO infected in human erythrocytes assessed as FIC index in presence of chloroquine; format: functional
Plasmodium falciparum [9] = assay: Synergistic antiplasmodial activity against synchronized ring stage of chloroquine-sensitive Plasmodium falciparum 3D7 infected in human erythrocytes assessed as FIC index in presence of chloroquine; format: functional
Plasmodium falciparum [10] = assay: Synergistic antiplasmodial activity against synchronized ring stage of chloroquine-resistant Plasmodium falciparum INDO infected in human erythrocytes assessed as FIC index in presence of artemisinin; format: functional
Plasmodium falciparum [11] = assay: Synergistic antiplasmodial activity against synchronized ring stage of chloroquine-sensitive Plasmodium falciparum 3D7 infected in human erythrocytes assessed as FIC index in presence of artemisinin; format: functional
Plasmodium falciparum [12] = assay: Synergistic antiplasmodial activity against synchronized ring stage of chloroquine-sensitive Plasmodium falciparum 3D7 infected in human erythrocytes assessed as ratio of IC50 in absence of artemisinin to IC50 in presence of artemisinin; format: functional
Plasmodium falciparum [13] = assay: (§1) Antiplasmodial activity against synchronized ring stage of chloroquine-resistant Plasmodium falciparum INDO infected in human erythrocytes assessed as parasite growth inhibition at 8 uM treated for 6 to 48 hrs by Giemsa staining based microscopic analysis; format: functional, organism-based
Plasmodium falciparum [14] = assay: (§2) Antiplasmodial activity against synchronized trophozoite stage of chloroquine-resistant Plasmodium falciparum INDO infected in human erythrocytes assessed as parasite growth inhibition at 8 uM treated for 18 to 24 hrs by Giemsa staining based microscopic analysis; format: functional, organism-based
Plasmodium falciparum [15] = assay: Antiplasmodial activity against synchronized schizont stage of chloroquine-resistant Plasmodium falciparum INDO infected in human erythrocytes assessed as parasite growth inhibition at 8 uM treated for 12 hrs by Giemsa staining based microscopic analysis; format: functional, organism-based
Plasmodium falciparum [16] = assay: as §1, with “Plasmodicidal” for “Antiplasmodial”, “killing” for “growth inhibition”, “hrs followed by compound wash out measured after 48 to 90 hrs” for “hrs”; format: functional, organism-based
Plasmodium falciparum [17] = assay: as §2, with “Plasmodicidal” for “Antiplasmodial”, “killing” for “growth inhibition”, “hrs followed by compound wash out measured after 48 to 54 hrs” for “hrs”; format: functional, organism-based
Plasmodium falciparum [18] = assay: Plasmodicidal activity against synchronized schizont stage of chloroquine-resistant Plasmodium falciparum INDO infected in human erythrocytes assessed as parasite killing at 8 uM treated for 12 hrs followed by compound wash out measured after 48 hrs by Giemsa staining based microscopic analysis; format: functional, organism-based
Plasmodium falciparum [19] = assay: as §1, with “Synergistic antiplasmodial” for “Antiplasmodial”, “FIC90” for “8 uM”, “hrs followed by compound wash out measured after 48 to 90 hrs in presence of chloroquine” for “hrs”; format: functional, organism-based
Plasmodium falciparum [20] = assay: as §2, with “Synergistic antiplasmodial” for “Antiplasmodial”, “FIC90” for “8 uM”, “hrs followed by compound wash out measured after 48 to 54 hrs in presence of chloroquine” for “hrs”; format: functional, organism-based
Plasmodium falciparum [21] = assay: as §1, with “Synergistic antiplasmodial” for “Antiplasmodial”, “FIC90” for “8 uM”, “hrs followed by compound wash out measured after 48 to 90 hrs in presence of artemisinin” for “hrs”; format: functional, organism-based
Plasmodium falciparum [22] = assay: as §2, with “Synergistic antiplasmodial” for “Antiplasmodial”, “FIC90” for “8 uM”, “hrs followed by compound wash out measured after 48 to 54 hrs in presence of artemisinin” for “hrs”; format: functional, organism-based
Plasmodium falciparum [23] = assay: (§3) Synergistic plasmodicidal activity against synchronized ring stage of chloroquine-resistant Plasmodium falciparum INDO infected in human erythrocytes assessed as parasite killing at FIC90 treated for 6 to 48 hrs followed by compound wash out measured after 48 to 90 hrs followed by compound wash out measured after 48 to 90 hrs in presence of chloroquine by Giemsa staining based microscopic analysis; format: functional, organism-based
Plasmodium falciparum [24] = assay: as §3, with “synchronized trophozoite” for “synchronized ring”, “for 18” for “for 6”, “to 24” for “to 48”, “to 54” for “to 90”; format: functional, organism-based
Plasmodium falciparum [25] = assay: as §3, with “presence of artemisinin by Giemsa” for “presence of chloroquine by Giemsa”; format: functional, organism-based
Plasmodium falciparum [26] = assay: (§4) Synergistic plasmodicidal activity against synchronized trophozoite stage of chloroquine-resistant Plasmodium falciparum INDO infected in human erythrocytes assessed as parasite killing at FIC90 treated for 18 to 24 hrs followed by compound wash out measured after 48 to 54 hrs followed by compound wash out measured after 48 to 54 hrs in presence of artemisinin by Giemsa staining based microscopic analysis; format: functional, organism-based
Plasmodium falciparum [27] = assay: (§5) Synergistic antiplasmodial activity against synchronized schizont stage of chloroquine-resistant Plasmodium falciparum INDO infected in human erythrocytes assessed as parasite growth inhibition at FIC90 treated for 12 hrs followed by compound wash out measured after 48 hrs in presence of chloroquine by Giemsa staining based microscopic analysis; format: functional, organism-based
Plasmodium falciparum [28] = assay: as §5, with “presence of artemisinin by Giemsa” for “presence of chloroquine by Giemsa”; format: functional, organism-based
Plasmodium falciparum [29] = assay: as §3, with “antiplasmodial” for “plasmodicidal”, “growth inhibition” for “killing”, “2 times FIC100” for “FIC90”, “48” for “48 hrs followed by compound wash out measured after 48 to 90”; format: functional, organism-based
Plasmodium falciparum [30] = assay: Synergistic antiplasmodial activity against synchronized trophozoite stage of chloroquine-resistant Plasmodium falciparum INDO infected in human erythrocytes assessed as parasite growth inhibition at 2 times FIC100 treated for 18 to 24 hrs followed by compound wash out measured after 48 to 54 hrs in presence of chloroquine by Giemsa staining based microscopic analysis; format: functional, organism-based
Plasmodium falciparum [31] = assay: as §5, with “2 times FIC100” for “FIC90”; format: functional, organism-based
Plasmodium falciparum [32] = assay: as §3, with “killing at 2 times FIC100 treated for” for “killing at FIC90 treated for”, “presence of artemisinin by Giemsa” for “presence of chloroquine by Giemsa”; format: functional, organism-based
Plasmodium falciparum [33] = assay: as §4, with “2 times FIC100” for “FIC90”; format: functional, organism-based
Plasmodium falciparum [34] = assay: Synergistic plasmodicidal activity against synchronized schizont stage of chloroquine-resistant Plasmodium falciparum INDO infected in human erythrocytes assessed as parasite killing at 2 times FIC100 treated for 12 hrs followed by compound wash out measured after 48 hrs in presence of artemisinin by Giemsa staining based microscopic analysis; format: functional, organism-based
Plasmodium falciparum [35] = assay: Induction of apoptosis in synchronized trophozoite stage of chloroquine-resistant Plasmodium falciparum INDO infected in human erythrocytes assessed as parasite killing at 8 uM up to 24 hrs by Giemsa staining based microscopic analysis; format: functional, organism-based
Plasmodium falciparum [36] = assay: Induction of apoptosis in synchronized trophozoite stage of chloroquine-resistant Plasmodium falciparum INDO infected in human erythrocytes assessed as chromatin fragmentation at 8 uM by Hoechst 33342 staining based fluorescence microscopic analysis; format: functional, organism-based; conditions: TDE = time-dependent effect
Plasmodium falciparum [37] = assay: Induction of apoptosis in synchronized trophozoite stage of chloroquine-resistant Plasmodium falciparum INDO infected in human erythrocytes assessed as chromatin fragmentation at 8 uM after 24 hrs by agarose gel electrophoresis method; format: functional, organism-based
Plasmodium falciparum [38] = assay: Induction of mitochondrial membrane potential loss in synchronized trophozoite stage of chloroquine-resistant Plasmodium falciparum INDO infected in human erythrocytes at 8 uM after 18 to 24 hrs by fluorescence microscopic analysis; format: functional, organism-based
Plasmodium falciparum [39] = assay: (§6) Induction of apoptosis in synchronized trophozoite stage of chloroquine-resistant Plasmodium falciparum INDO infected in human erythrocytes assessed as translocation of phosphatidylserine from inner to outer leaflet of plasma membrane at 8 uM after 12 hrs by Annexin-V/Alexa fluor-488 staining based fluorescence microscopic analysis; format: functional, organism-based
Plasmodium falciparum [40] = assay: as §6, with “flow cytometry” for “fluorescence microscopic analysis”; format: functional, organism-based
Plasmodium falciparum [41] = assay: Induction of apoptosis in synchronized trophozoite stage of chloroquine-resistant Plasmodium falciparum INDO infected in human erythrocytes assessed as activation of caspase-like protease at 8 uM after 12 hrs by Caspase FITC-VAD-FMK substrate based fluorescence microscopic analysis; format: functional, organism-based
Plasmodium falciparum [42] = assay: Induction of apoptosis in synchronized trophozoite stage of chloroquine-resistant Plasmodium falciparum INDO infected in human erythrocytes assessed as activation of caspase-like protease at 8 uM after 12 hrs by Caspase FITC-VAD-FMK substrate based flow cytometry; format: functional, organism-based

C=CCOc1c(OC)cc(/C=C/C(=O)c2cc(OC)c(OC)c(OC)c2)cc1-c1cc(/C=C/C(=O)c2cc(OC)c(OC)c(OC)c2)cc(OC)c1OCC=C
IC50 (Plasmodium falciparum [1]): 5.5 µM
IC50 (Plasmodium falciparum [2]): 2.2 µM
IC50 (Plasmodium falciparum [3]): 1.7 µM
Ratio IC50 [4]: 0.4
Ratio IC50 [5]: 0.3
selectivity ratio [6]: > 36.4
selectivity ratio [7]: > 36.4

C=CCOc1ccc(/C=C/C(=O)c2cccc(C(=O)/C=C/c3ccc(OCC=C)c(OC)c3)c2)cc1OC
IC50 (Plasmodium falciparum [1]): > 50 µM

C=CCOc1ccc(/C=C/C(=O)c2cccc(C(=O)/C=C/c3ccc(OCC=C)c(OCC=C)c3)c2)cc1OCC=C
IC50 (Plasmodium falciparum [1]): 18 µM
IC50 (Plasmodium falciparum [2]): 13.7 µM
IC50 (Plasmodium falciparum [3]): 18.9 µM
Ratio IC50 [4]: 0.76
Ratio IC50 [5]: 1.05
selectivity ratio [6]: > 5.6
selectivity ratio [7]: > 5.6

C=CCc1cc(/C=C/C(=O)c2cccc(C(=O)/C=C/c3cc(CC=C)c(OC)c(OC)c3)c2)cc(OC)c1OC
IC50 (Plasmodium falciparum [1]): 2.5 µM
IC50 (Plasmodium falciparum [2]): 3.8 µM
IC50 (Plasmodium falciparum [3]): 3.5 µM
Ratio IC50 [4]: 1.5
Ratio IC50 [5]: 1.4
selectivity ratio [6]: 11.2
selectivity ratio [7]: 8.8
fractional inhibitory concentration index (FICI) (Plasmodium falciparum [8]): 0.7 - 1.23
fractional inhibitory concentration index (FICI) (Plasmodium falciparum [9]): 1.38 - 3.34
fractional inhibitory concentration index (FICI) (Plasmodium falciparum [10]): 0.46 - 0.58
fractional inhibitory concentration index (FICI) (Plasmodium falciparum [11]): 1.33 - 1.58
Ratio IC50 (Plasmodium falciparum [12]): 20 - 311
Activity (Plasmodium falciparum [13]): Active
Activity (Plasmodium falciparum [14]): Active
Activity (Plasmodium falciparum [15]): Active
Activity (Plasmodium falciparum [16]): Active
Activity (Plasmodium falciparum [17]): Active
Activity (Plasmodium falciparum [18]): Active
Activity (Plasmodium falciparum [19]): Active
Activity (Plasmodium falciparum [20]): Active
Activity (Plasmodium falciparum [21]): Active
Activity (Plasmodium falciparum [22]): Active
Activity (Plasmodium falciparum [23]): inactive
Activity (Plasmodium falciparum [24]): inactive
Activity (Plasmodium falciparum [25]): inactive
Activity (Plasmodium falciparum [26]): inactive
Activity (Plasmodium falciparum [27]): Active
Activity (Plasmodium falciparum [28]): Active
Activity (Plasmodium falciparum [29]): Active
Activity (Plasmodium falciparum [30]): Active
Activity (Plasmodium falciparum [31]): Active
Activity (Plasmodium falciparum [32]): Active
Activity (Plasmodium falciparum [33]): inactive
Activity (Plasmodium falciparum [34]): inactive
Activity (Plasmodium falciparum [35]): Active
Activity (Plasmodium falciparum [36]): Tde
Activity (Plasmodium falciparum [37]): Active
Activity (Plasmodium falciparum [38]): Active
Activity (Plasmodium falciparum [39]): Active
Activity (Plasmodium falciparum [40]): Active
Activity (Plasmodium falciparum [41]): Active
Activity (Plasmodium falciparum [42]): Active

C=CCOc1c(OC)cc(/C=C/C(=O)c2cc3ccccc3oc2=O)cc1-c1cc(/C=C/C(=O)c2cc3ccccc3oc2=O)cc(OC)c1OCC=C
IC50 (Plasmodium falciparum [1]): 18.4 µM

C=CCOc1c(OC)cc(/C=C/C(=O)c2ccccc2)cc1-c1cc(/C=C/C(=O)c2ccccc2)cc(OC)c1OCC=C
IC50 (Plasmodium falciparum [1]): 7 µM
IC50 (Plasmodium falciparum [2]): 3.5 µM
IC50 (Plasmodium falciparum [3]): 2.1 µM
Ratio IC50 [4]: 0.5
Ratio IC50 [5]: 0.3
selectivity ratio [6]: > 28.6
selectivity ratio [7]: 7.1

C=CCOc1ccc(C(=O)/C=C/c2cc(OC)c(OCC=C)c(-c3cc(/C=C/C(=O)c4ccc(OCC=C)cc4OCC=C)cc(OC)c3OCC=C)c2)c(OCC=C)c1
IC50 (Plasmodium falciparum [1]): 63 µM

C=CCOc1ccc(C(=O)/C=C/c2cc(OC)c(OCC=C)c(-c3cc(/C=C/C(=O)c4ccc(OCC=C)cc4)cc(OC)c3OCC=C)c2)cc1
IC50 (Plasmodium falciparum [1]): 2 µM
IC50 (Plasmodium falciparum [2]): > 50 µM
IC50 (Plasmodium falciparum [3]): 16.6 µM
Ratio IC50 [4]: >25
Ratio IC50 [5]: 8.3
selectivity ratio [6]: > 100
selectivity ratio [7]: > 100
